Laboratory results as given in patent US20250235543A1, “MODIFIED PROTEINS AND PROTEIN DEGRADERS” (Cullgen (Shanghai), Inc., priority 2021, published 2025).
Read-outs that look alike come from different tables or passages of the source.

How the values were obtained:
cyclin D1 = experiment: Cyclin D1 percentage degradation in Calu-1 cells (immunoblotting); format: cell-based; details: 16 hours
Method: (§1) […] A: protein percentage degradation >=80%; B: protein percentage degradation <80%, and >=50%; C: protein percentage degradation <50%, and >=30%; D: protein percentage degradation <30%.
(§2) Cultured cells were washed with cold PBS once and lysed in cold RIPA buffer supplemented with protease inhibitors and phosphatase inhibitors (Beyotime Biotechnology). The solutions were then incubated at 4° C. for 30 min with gentle agitation to fully lysed cells. Cell lysates were centrifuged at 13,000 rpm for 10 min at 4° C. and pellets were discarded. Total protein concentrations in the lysates were determined following BCA assays (Beyotime Biotechnology). Cell lysates were mixed with Laemmli loading buffer and heated at 99° C. for 5 min. Proteins were resolved on SDS-PAGE and visualized using Western ECL Substrate kits on a ChemiDoc MP Imaging system (Bio-Rad). Protein bands were quantitated using the Image Lab software provided by Bio-Rad.

CDK4 = biological target: T1, CDK4 (Homo sapiens, UniProt P11802); experiment: CDK4 percentage degradation in Calu-1 cells (immunoblotting); format: cell-based; details: for inhibition at 0.2 µM: read-out: CDK4 Degradation (200 nM); for inhibition at 10 µM: read-out: CDK4 Degradation (10 μM)
T1 construct: endogenous in cells; host or cells: Calu-1
Method: as §1, §2

T1 sequence (P11802 2-303 limits assumed): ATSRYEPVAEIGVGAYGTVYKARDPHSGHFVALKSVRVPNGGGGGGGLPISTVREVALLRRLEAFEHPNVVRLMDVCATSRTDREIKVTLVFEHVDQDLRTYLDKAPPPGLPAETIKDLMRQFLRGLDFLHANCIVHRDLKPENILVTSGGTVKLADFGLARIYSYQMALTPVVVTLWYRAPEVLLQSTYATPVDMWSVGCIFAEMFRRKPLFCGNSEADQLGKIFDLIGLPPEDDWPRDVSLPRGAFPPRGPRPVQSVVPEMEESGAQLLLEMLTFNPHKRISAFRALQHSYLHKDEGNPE
T1 sequence (P24385 whole entry partner): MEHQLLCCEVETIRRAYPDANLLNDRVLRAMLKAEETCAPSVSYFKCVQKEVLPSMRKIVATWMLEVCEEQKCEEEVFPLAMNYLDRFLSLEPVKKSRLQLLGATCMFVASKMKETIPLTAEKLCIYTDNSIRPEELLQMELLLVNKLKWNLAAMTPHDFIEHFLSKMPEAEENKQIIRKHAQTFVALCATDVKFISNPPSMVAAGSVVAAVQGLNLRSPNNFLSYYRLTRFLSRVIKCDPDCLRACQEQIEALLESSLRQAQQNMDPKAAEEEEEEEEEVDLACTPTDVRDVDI
T1 sequence (Q16531 2-1140 limits assumed, further chain): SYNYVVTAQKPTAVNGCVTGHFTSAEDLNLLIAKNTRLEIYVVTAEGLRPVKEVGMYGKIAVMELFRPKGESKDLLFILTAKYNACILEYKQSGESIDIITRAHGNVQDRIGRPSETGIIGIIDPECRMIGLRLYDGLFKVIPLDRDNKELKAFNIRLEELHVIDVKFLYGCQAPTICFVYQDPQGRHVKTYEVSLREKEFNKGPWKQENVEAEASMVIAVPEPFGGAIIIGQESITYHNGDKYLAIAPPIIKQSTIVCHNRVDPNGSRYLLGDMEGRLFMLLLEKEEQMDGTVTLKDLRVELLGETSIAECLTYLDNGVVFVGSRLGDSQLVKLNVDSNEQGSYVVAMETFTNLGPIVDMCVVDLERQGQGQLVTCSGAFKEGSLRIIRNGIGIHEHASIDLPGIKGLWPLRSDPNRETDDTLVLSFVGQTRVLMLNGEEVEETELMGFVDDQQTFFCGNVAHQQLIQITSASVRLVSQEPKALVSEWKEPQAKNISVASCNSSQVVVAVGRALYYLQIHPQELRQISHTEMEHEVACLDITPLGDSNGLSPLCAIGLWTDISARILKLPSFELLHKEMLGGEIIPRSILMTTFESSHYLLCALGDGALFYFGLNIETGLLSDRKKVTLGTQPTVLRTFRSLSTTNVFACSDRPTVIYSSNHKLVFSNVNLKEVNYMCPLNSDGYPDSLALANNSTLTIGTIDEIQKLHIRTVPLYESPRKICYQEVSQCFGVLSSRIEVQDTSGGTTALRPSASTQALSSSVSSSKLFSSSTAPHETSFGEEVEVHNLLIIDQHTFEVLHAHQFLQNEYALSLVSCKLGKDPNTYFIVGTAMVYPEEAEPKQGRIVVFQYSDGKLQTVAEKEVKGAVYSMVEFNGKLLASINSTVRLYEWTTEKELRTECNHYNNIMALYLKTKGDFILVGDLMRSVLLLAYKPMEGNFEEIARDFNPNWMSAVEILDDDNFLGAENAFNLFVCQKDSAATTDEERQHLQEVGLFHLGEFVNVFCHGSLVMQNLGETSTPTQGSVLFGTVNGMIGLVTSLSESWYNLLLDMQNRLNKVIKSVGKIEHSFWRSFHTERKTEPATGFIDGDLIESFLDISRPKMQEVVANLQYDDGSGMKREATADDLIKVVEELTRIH

Row | SMILES | inhibition at 0.2 µM (CDK4; Calu-1 cells, 200 nM, 16 hours) [%] | inhibition at 10 µM (CDK4; Calu-1 cells, 16 hours) [%] | CyclinD1 Degradation (200 nM) (cyclin D1) | inhibition at 0.2 µM (CDK4; Calu-1, 16 h) [%] | CyclinD1 Degradation (10 μM) (cyclin D1)
1 | CC(=O)c1c(C)c2cnc(Nc3ccc(N4CCN(C(=O)CCOCCC(=O)Nc5ccccc5C(=O)Nc5nc(C)c(C)s5)CC4)cn3)nc2n(C2CCCC2)c1=O [CPD-181, 2-(3-(3-(4-(6-((6-Acetyl-8-cyclopentyl-5-methyl-7-oxo-7,8-dihydropyrido[2,3-d]pyrimidin-2-yl)amino)pyridin-3-yl)piperazin-1-yl)-3-oxopropoxy)propanamido)-N-(4,5-dimethylthiazol-2-yl)benzamide] |  |  | D (protein percentage degradation <30%) | < 30 | 
2 | CC(=O)c1c(C)c2cnc(Nc3ccc(N4CCN(CCCCCCCC(=O)Nc5ccccc5C(=O)Nc5ccc(C)cn5)CC4)cn3)nc2n(C2CCCC2)c1=O [CPD-183, 2-(8-(4-(6-((6-Acetyl-8-cyclopentyl-5-methyl-7-oxo-7,8-dihydropyrido[2,3-d]pyrimidin-2-yl)amino)pyridin-3-yl)piperazin-1-yl)octanamido)-N-(5-methylpyridin-2-yl)benzamide] |  |  | D (protein percentage degradation <30%) | < 30 | 
3 | Cc1nc(NC(=O)c2ccccc2NC(=O)CCOCCOCCOCCNC(=O)CN2CCN(c3ccc(Nc4ncc5cc(C(=O)N(C)C)n(C6CCCC6)c5n4)nc3)CC2)sc1C [CPD-296, 7-Cyclopentyl-2-((5-(4-(15-((2-((4,5-dimethylthiazol-2-yl)carbamoyl)phenyl)amino)-2,15-dioxo-6,9,12-trioxa-3-azapentadecyl)piperazin-1-yl)pyridin-2-yl)amino)-N,N-dimethyl-7H-pyrrolo[2,3-d]pyrimidine-6-carboxamide] |  | 50 to 80 |  |  | A (protein percentage degradation >= 80%)
4 | Cc1nc(NC(=O)c2ccccc2NC(=O)CCOCCOCCOCCNC(=O)CN2CCN(Cc3ccc(Nc4ncc(F)c(-c5cc(F)c6nc(C)n(C(C)C)c6c5)n4)nc3)CC2)sc1C [CPD-282, N-(4,5-Dimethylthiazol-2-yl)-2-(1-(4-((6-((5-fluoro-4-(4-fluoro-1-isopropyl-2-methyl-1H-benzo[d]imidazol-6-yl)pyrimidin-2-yl)amino)pyridin-3-yl)methyl)piperazin-1-yl)-2-oxo-6,9,12-trioxa-3-azapentadecan-15-amido)benzamide] |  | < 30 |  |  | D (protein percentage degradation < 30%)
5 | CC(=O)c1c(C)c2cnc(Nc3ccc(N4CCN(CC(=O)NCCOCCOCCC(=O)Nc5cc(F)ccc5C(=O)Nc5nc(C)c(C)s5)CC4)cn3)nc2n(C2CCCC2)c1=O [CPD-143, 2-(3-(2-(2-(2-(4-(6-((6-Acetyl-8-cyclopentyl-5-methyl-7-oxo-7,8-dihydropyrido[2,3-d]pyrimidin-2-yl)amino)pyridin-3-yl)piperazin-1-yl)acetamido)ethoxy)ethoxy)propanamido)-N-(4,5-dimethylthiazol-2-yl)-4-fluorobenzamide] | > 80 |  | A (protein percentage degradation >=80%) |  | 
6 | CC(=O)c1c(C)c2cnc(Nc3ccc(N4CCN(CCNCCOCCOCCC(=O)Nc5ccccc5C(=O)Nc5nc(C)c(C)s5)CC4)cn3)nc2n(C2CCCC2)c1=O [CPD-187, 2-(3-(2-(2-((2-(4-(6-((6-Acetyl-8-cyclopentyl-5-methyl-7-oxo-7,8-dihydropyrido[2,3-d]pyrimidin-2-yl)amino)pyridin-3-yl)piperazin-1-yl)ethyl)amino)ethoxy)ethoxy)propanamido)-N-(4,5-dimethylthiazol-2-yl)benzamide] |  |  | D (protein percentage degradation <30%) | < 30 | 
7 | CC(=O)c1c(C)c2cnc(Nc3ccc(N4CCN(C(=O)CCNc5ccc(C)c(C(=O)Nc6nc(C)c(C)s6)c5)CC4)cn3)nc2n(C2CCCC2)c1=O [CPD-091, 5-((3-(4-(6-((6-Acetyl-8-cyclopentyl-5-methyl-7-oxo-7,8-dihydropyrido[2,3-d]pyrimidin-2-yl)amino)pyridin-3-yl)piperazin-1-yl)-3-oxopropyl)amino)-N-(4,5-dimethylthiazol-2-yl)-2-methylbenzamide] |  |  | D (protein percentage degradation <30%) | < 30 | 

The next lines start with results.

Row | inhibition at 0.2 µM (CDK4; Calu-1 cells, 200 nM, 16 hours) [%] | inhibition at 10 µM (CDK4; Calu-1 cells, 16 hours) [%] | SMILES | CyclinD1 Degradation (200 nM) (cyclin D1) | inhibition at 0.2 µM (CDK4; Calu-1, 16 h) [%] | CyclinD1 Degradation (10 μM) (cyclin D1)
8 | > 80 |  | CC(=O)c1c(C)c2cnc(Nc3ccc(N4CCN(CC(=O)NCCCCCCCNc5cccc(C(=O)Nc6cc(C)n(C)n6)c5C)CC4)cn3)nc2n(C2CCCC2)c1=O [CPD-329, 3-((7-(2-(4-(6-((6-Acetyl-8-cyclopentyl-5-methyl-7-oxo-7,8-dihydropyrido[2,3-d]pyrimidin-2-yl)amino)pyridin-3-yl)piperazin-1-yl)acetamido)heptyl)amino)-N-(1,5-dimethyl-1H-pyrazol-3-yl)-2-methylbenzamide] | A (protein percentage degradation >=80%) |  | 
9 | 50 to 80 |  | CC(=O)c1c(C)c2cnc(Nc3ccc(N4CCN(CC(=O)NCCOCCOCCC(=O)Nc5ccccc5C(=O)Nc5cnc(C)nc5)CC4)cn3)nc2n(C2CCCC2)c1=O [CPD-186, 2-(3-(2-(2-(2-(4-(6-((6-Acetyl-8-cyclopentyl-5-methyl-7-oxo-7,8-dihydropyrido[2,3-d]pyrimidin-2-yl)amino)pyridin-3-yl)piperazin-1-yl)acetamido)ethoxy)ethoxy)propanamido)-N-(2-methylpyrimidin-5-yl)benzamide] | B (protein percentage degradation <80%, and >=50%) |  | 
10 | < 30 |  | CC(=O)c1c(C)c2cnc(Nc3ccc(N4CCN(CC(=O)NCCOCCOCCC(=O)Nc5ccccc5C(=O)Nc5ncc(C)[nH]5)CC4)cn3)nc2n(C2CCCC2)c1=O [CPD-064, 2-(3-(2-(2-(2-(4-(6-((6-Acetyl-8-cyclopentyl-5-methyl-7-oxo-7,8-dihydropyrido[2,3-d]pyrimidin-2-yl)amino)pyridin-3-yl)piperazin-1-yl)acetamido)ethoxy)ethoxy)propanamido)-N-(5-methyl-1H-imidazol-2-yl)benzamide] | D (protein percentage degradation <30%) |  | 
11 | < 30 |  | CC(=O)c1c(C)c2cnc(Nc3ccc(N4CCN(CC(=O)NCCOCCOCCC(=O)Nc5ccc(Br)cc5C(=O)Nc5nc(C)c(C)s5)CC4)cn3)nc2n(C2CCCC2)c1=O [CPD-145, 2-(3-(2-(2-(2-(4-(6-((6-Acetyl-8-cyclopentyl-5-methyl-7-oxo-7,8-dihydropyrido[2,3-d]pyrimidin-2-yl)amino)pyridin-3-yl)piperazin-1-yl)acetamido)ethoxy)ethoxy)propanamido)-5-bromo-N-(4,5-dimethylthiazol-2-yl)benzamide] | D (protein percentage degradation <30%) |  | 
12 | < 30 |  | CC(=O)c1c(C)c2cnc(Nc3ccc(N4CCN(CC(=O)NCCOCCOCCOCCOCCOCCNC(=O)c5ccc(C(=O)Nc6ncc(C)s6)c(C)c5)CC4)cn3)nc2n(C2CCCC2)c1=O [CPD-008, N^4-(1-(4-(6-((6-Acetyl-8-cyclopentyl-5-methyl-7-oxo-7,8-dihydropyrido[2,3-d]pyrimidin-2-yl)amino)pyridin-3-yl)piperazin-1-yl)-2-oxo-6,9,12,15,18-pentaoxa-3-azaicosan-20-yl)-2-methyl-N^1-(5-methylthiazol-2-yl)terephthalamide] | D (protein percentage degradation <30%) |  | 
13 | 50 to 80 |  | CC(=O)c1c(C)c2cnc(Nc3ccc(N4CCN(CC(=O)NCCOCCOCCC(=O)Nc5c(C(=O)Nc6ccc(C)cn6)ccc6[nH]ncc56)CC4)cn3)nc2n(C2CCCC2)c1=O [CPD-359] | A (protein percentage degradation >=80%) |  | 
14 | < 30 |  | CC(=O)c1c(C)c2cnc(Nc3ccc(N4CCN(CC(=O)NCCOCCOCCC(=O)Nc5ccccc5C(=O)Nc5nc(C)ns5)CC4)cn3)nc2n(C2CCCC2)c1=O [CPD-058, 2-(3-(2-(2-(2-(4-(6-((6-Acetyl-8-cyclopentyl-5-methyl-7-oxo-7,8-dihydropyrido[2,3-d]pyrimidin-2-yl)amino)pyridin-3-yl)piperazin-1-yl)acetamido)ethoxy)ethoxy)propanamido)-N-(3-methyl-1,2,4-thiadiazol-5-yl)benzamide] | D (protein percentage degradation <30%) |  | 
15 | < 30 |  | CC(=O)c1c(C)c2cnc(Nc3ccc(N4CCN(CC(=O)NCCOCCOCCC(=O)Nc5ccccc5C(=O)Nc5cc(C(F)(F)F)n(C)n5)CC4)cn3)nc2n(C2CCCC2)c1=O [CPD-069, 2-(3-(2-(2-(2-(4-(6-((6-Acetyl-8-cyclopentyl-5-methyl-7-oxo-7,8-dihydropyrido[2,3-d]pyrimidin-2-yl)amino)pyridin-3-yl)piperazin-1-yl)acetamido)ethoxy)ethoxy)propanamido)-N-(1-methyl-5-(trifluoromethyl)-1H-pyrazol-3-yl)benzamide] | D (protein percentage degradation <30%) |  | 
16 | < 30 |  | CC(=O)c1c(C)c2cnc(Nc3ccc(N4CCN(CC(=O)NCCOCCOCCC(=O)Nc5cccc(C)c5C(=O)Nc5nc(C)c(C)s5)CC4)cn3)nc2n(C2CCCC2)c1=O [CPD-139, 2-(3-(2-(2-(2-(4-(6-((6-Acetyl-8-cyclopentyl-5-methyl-7-oxo-7,8-dihydropyrido[2,3-d]pyrimidin-2-yl)amino)pyridin-3-yl)piperazin-1-yl)acetamido)ethoxy)ethoxy)propanamido)-N-(4,5-dimethylthiazol-2-yl)-6-methylbenzamide] | D (protein percentage degradation <30%) |  | 
